Data as given in patent US8222261B2, “Chemical compounds” (GlaxoSmithKline, LLC, priority 2006, dated 2012).

Assays:
Male Sprague-Dawley rats = assay: Glucose stimulated insulin secretion and glucose disposal in rats, intravenous glucose tolerance test; format: in vivo; conditions: 10 mg/kg oral, 0.5 g/kg dextrose i.v. 90 min after dosing, vs vehicle
Procedure: Male Sprague-Dawley rats (Charles River Laboratories, USA) had catheters surgically implanted into the jugular vein and allowed to recover for one week. On the day of the experiment, food was removed in the morning and animals were randomly assigned to two treatment groups, vehicle (n=8) or GPR119 agonist (Example 1; n=9). In the afternoon, baseline blood samples were collected prior to, and 90 minutes following oral administration of either vehicle (0.5% HPMC/0.1% Tween80) or 10 mg/kg Example 1. The intravenous glucose tolerance test was initiated immediately after the 90 minute blood sample by intravenous infusion of 0.5 g/kg dextrose over 15-30 seconds into the jugular vein, Blood samples were collected from the jugular vein at 2, 5, 10, 15, and 30 min and treated as described for the hyperglycemic clamp. Serum was collected for analysis of glucose levels using an Olympus AU640 clinical chemistry analyzer (Olympus America Inc, Melville, N.Y.) and insulin levels by an electrochemoluminescence assay (Bioveris, Gaithersburg Md.). The rats were sacrificed at the end of the study by an overdose of Nembutal.
FIG. 14 and FIG. 15 show circulating plasma glucose and insulin concentrations at each time point throughout the intravenous glucose tolerance test. The data is represented as the average glucose and insulin levels±SEM for all animals in for the two treatment groups.

[1] = system: transgenic wild type (WT) and GPR119 knock-out (KO) mice; assay: Oral glucose tolerance in wild type and GPR119 knockout mice; format: in vivo; conditions: 2 g/kg dextrose oral 1 h after dosing
Procedure: Male transgenic wild type (WT) and GPR119 knock-out (KO) mice (Charles River Laboratories, USA), at an age of 12 weeks, were fasted overnight (approximately 15 hrs) then randomly grouped (n=8-10) to receive vehicle (0.5% HPMC/0.1% Tween80), a GPR119 agonist (30 mg/kg) or a positive control (10 mg/kg), the DPPIV inhibitor as described above. Vehicle or compounds were delivered orally by oral gavage at a volume of 10 mL/kg, and the tip of tail was nicked using a scalpel to allow whole blood glucose measurements. One hour after administration of vehicle or test compounds, dextrose was administered orally at 2 g/kg. Whole blood glucose levels were measured prior to, and 10, 20, 30, 45, 60, 90 and 120 min after the oral glucose load using a Glucometer (Freestyle, Therasense) from the tip of tail. At the end of the study the mice were sacrificed by cervical dislocation.
The glucose tolerance was calculated as the area under the glucose curve (AUC). Data is represented as box plots summarizing the distribution of data for each treatment group, as described above. Horizontal lines represent the mean data.

C57BL/6 male mice = assay: Effect of a GPR119 agonist on circulating GLP-1 and GIP in vivo in mice; conditions: fasted mice, 1, 3, 10, 30 or 60 mg/kg oral gavage, 60 min after dosing
Procedure: Ten weeks old C57BL/6 male mice (Taconic Farms, USA) were fasted overnight then randomly distributed into 6 treatment groups (n=10 mice per treatment group) receiving either vehicle (0.5% HPMC/0.1% Tween80), or a GPR119 agonist (Example 1) at five different doses (1, 3, 10, 30 or 60 mg/kg) by oral gavage. All animals were dosed with a volume of 10 mL/kg of their designated treatment. Sixty minutes after the oral gavage the mice were anesthetized using isofluorane for collection of blood samples by cardiac puncture. All mice were euthanized by cervical dislocation immediately following the cardiac puncture. […] Total GLP-1 levels were determined using a MULTI-ARRAY® electrochemoluminescence assay from Meso Scale Discovery (Cat #K110-FAC-2; Gaithersburg, Md.). Total GIP levels were determined using an ELISA assay (Cat# EZRMGIP-55K, Linco Diagnostic Services, St Charles, Mo.).
Data is represented as box plots summarizing the distribution of individual data point for each treatment group. […] FIG. 1 and FIG. 2 show total GLP-1 and total GIP respectively measured in circulation following administration of vehicle or a GPR119 agonist (Example 1) at doses as indicated.

Male Sprague Dawley rats = assay: Whole body insulin sensitivity, euglycemic hyperinsulinemic clamp in rats; format: in vivo; conditions: 10 mg/kg oral
Procedure: Male Sprague Dawley rats, weighing at 300-350 gram, had catheters surgically implanted into the jugular and femoral veins and allowed to recover for one week following the surgery. On the day before the experiment, food was removed in the afternoon to fast the animals overnight. The following morning animals were randomly assigned to two treatment groups, vehicle (n=7) and or 10 mg/kg of a GPR119 agonist (Example 1, n=9). Blood samples were collected from the jugular vein for baseline glucose measurements prior to oral administration of the respective treatment. The euglycemic hyperinsulinemic clamp was initiated approximately 90 minutes following oral administration of the respective treatments, by starting the constant insulin infusion at a rate of 1 mU/kg/min human insulin (Humulin, Eli Lilly and Company, Indianapolis, Id.) into the femoral vein of conscious animals. Whole blood glucose levels were measured every 10 minutes throughout the clamp. As the plasma glucose levels began to fall exogenous glucose infusion was started at a variable rate adjusted to achieve a stable plasma glucose level of 90-100 mg/dl. The glucose infusion rate required to maintain euglycemia was recorded throughout the experiment for each animal, and represents a measure of insulin sensitivity. Plasma glucose and human insulin levels were measured at the end of the clamp (at 180 min) as described above. At the end of the study the rats were sacrificed by an overdose of Nembutal.
Data is represented as box plots summarizing the distribution of data for each treatment group, as described above. Horizontal lines represent the mean data. […] The data is represented as mean GIR±SEM. At steady state, 180 minutes after starting the clamp, the glucose infusion rate required to maintain euglycemia in Example 1 treated animals were three times that of vehicle treated animals.

[2] = rats, end of clamp (180 min), between treatment groups

SMILES: CC(C)OC(=O)N1CCC(Oc2ncnc3c2CCN3c2ccc(S(C)(=O)=O)cc2F)CC1 [Example 1, 1-Methylethyl 4-({7-[2-fluoro-4-(methylsulfonyl)phenyl]-6,7-dihydro-5H-pyrrolo[2,3-d]pyrimidin-4-yl}oxy)-1-piperidinecarboxylate]
- area under the glucose curve (AUC) (Male Sprague-Dawley rats): significantly reduced
- area under the insulin curve (Male Sprague-Dawley rats): significantly increased
- peak (2 minute) insulin response (Male Sprague-Dawley rats): significantly increased
- rate of glucose elimination (Male Sprague-Dawley rats): significantly increased
- glucose tolerance ([1]; GPR119 KO mice, 30 mg/kg oral): no effect
- reduction of total glucose AUC ([1]; WT mice, Example 1 30 mg/kg, DPPIV inhibitor 10 mg/kg oral): 28%
- circulating total GIP levels (C57BL/6 male mice): dose dependent increase
- circulating total GLP-1 levels (C57BL/6 male mice): dose dependent increase
- whole body insulin sensitivity (Male Sprague Dawley rats; normal rats, euglycemic hyperinsulinemic clamp): enhances
- euglycemia (plasma glucose at the end of the clamp) (Male Sprague Dawley rats; [2]): no significant difference
- steady state insulin exposure (Male Sprague Dawley rats; [2]): no significant difference
- glucose infusion rate required to maintain euglycemia, relative to vehicle (Male Sprague Dawley rats; rats, steady state 180 minutes after starting the clamp, insulin 1 mU/kg/min): three times
